{
  "source": "paper PMC5247571",
  "about": "(International Journal for Parasitology: Drugs and Drug …, 2017)",
  "key": {"[1]": {"tested_on": "blowfly larvae (Lucilia cuprina)", "assay": "Blowfly larval bioassay", "format": "in vivo", "settings": "for Blowfly bioassay, pupation, IC50: L. cuprina LS strain, number of pupae on Day 9 vs controls, 2 experiments; for Pupation IC50 relative to larval weight gain IC50: ratio of the two bioassay IC50 values; for Insecticidal activity in the blowfly bioassay (in words): blowfly larval bioassay"}, "[2]": {"tested_on": "HDAC activity of nuclear extracts from blowfly eggs", "assay": "Fluorometric HDAC enzyme assay with nuclear extracts from blowfly eggs", "format": "biochemical, Lucilia cuprina", "settings": "blowfly egg nuclear extract IC50 comparison"}, "[3]": {"settings": "larval bioassay IC50 comparison"}},
  "data": [
    {"smiles": "CCCC(=O)OCOC(=O)C(C)(C)C", "note": "[AN-9]", "values": [
      {"measurement": "Blowfly bioassay, pupation, IC50", "setting": "[1]", "result": ">1000", "unit": "μg/assay"}
    ]},
    {"smiles": "CCC(=O)CCCCC[C@@H]1NC(=O)[C@H]2CCCCN2C(=O)[C@H]([C@@H](C)CC)NC(=O)[C@H](Cc2cn(OC)c3ccccc23)NC1=O", "note": "[Apicidin]", "values": [
      {"measurement": "Blowfly bioassay, pupation, IC50", "setting": "[1]", "result": 489, "unit": "μg/assay"},
      {"measurement": "Pupation IC50 relative to larval weight gain IC50", "setting": "[1]", "result": 6, "unit": "fold"}
    ]},
    {"smiles": "O=C(/C=C/c1cccc(S(=O)(=O)Nc2ccccc2)c1)NO", "note": "[Belinostat]", "values": [
      {"measurement": "Blowfly bioassay, pupation, IC50", "setting": "[1]", "result": ">1000", "unit": "μg/assay"}
    ]},
    {"smiles": "C#Cc1cccc(Nc2ncnc3cc(OC)c(OCCCCCCC(=O)NO)cc23)c1", "note": "[CUDC-101]", "values": [
      {"measurement": "Blowfly bioassay, pupation, IC50", "setting": "[1]", "result": ">1000", "unit": "μg/assay"}
    ]},
    {"smiles": "COc1ccc(-c2nc(N3CCOCC3)c3sc(CN(C)c4ncc(C(=O)NO)cn4)cc3n2)cn1", "note": "[CUDC-907]", "values": [
      {"measurement": "Blowfly bioassay, pupation, IC50", "setting": "[1]", "result": 13.8, "unit": "μg/assay"},
      {"measurement": "Potency against blowfly larval growth relative to cyromazine (fold less potent)", "setting": "[1]; [3]", "result": "approximately 10 fold"},
      {"measurement": "Pupation IC50 relative to larval weight gain IC50", "setting": "[1]", "result": "approximately equal"}
    ]},
    {"smiles": "Nc1nc(N)nc(NC2CC2)n1", "note": "[Cyromazine]", "values": [
      {"measurement": "Blowfly bioassay, pupation, IC50", "setting": "[1]", "result": 1.54, "unit": "μg/assay"}
    ]},
    {"smiles": "N#Cc1c(N)nc(NC2CC2)nc1N", "note": "[Dicyclanil]", "values": [
      {"measurement": "Blowfly bioassay, pupation, IC50", "setting": "[1]", "result": 0.0634, "unit": "μg/assay"}
    ]},
    {"smiles": "O=C(NC(=O)c1c(F)cccc1F)Nc1ccc(Cl)cc1", "note": "[Diflubenzuron]", "values": [
      {"measurement": "Blowfly bioassay, pupation, IC50", "setting": "[1]", "result": 0.119, "unit": "μg/assay"}
    ]},
    {"smiles": "Nc1ccccc1NC(=O)c1ccc(CNC(=O)OCc2cccnc2)cc1", "note": "[Entinostat]", "values": [
      {"measurement": "Blowfly bioassay, pupation, IC50", "setting": "[1]", "result": 640, "unit": "μg/assay"}
    ]},
    {"smiles": "CCN(CC)Cc1ccc2cc(COC(=O)Nc3ccc(C(=O)NO)cc3)ccc2c1", "note": "[Givinostat]", "values": [
      {"measurement": "Blowfly bioassay, pupation, IC50", "setting": "[1]", "result": ">1000", "unit": "μg/assay"}
    ]},
    {"smiles": "Nc1ccccc1NC(=O)c1ccc(CNc2nccc(-c3cccnc3)n2)cc1", "note": "[Mocetinostat]", "values": [
      {"measurement": "Blowfly bioassay, pupation, IC50", "setting": "[1]", "result": ">1000", "unit": "μg/assay"}
    ]},
    {"smiles": "CCCCN(Cc1ccc(C(=O)NO)cc1)C(=O)Nc1ccccc1", "note": "[Nexturostat, Nexturastat A]", "values": [
      {"measurement": "Blowfly bioassay, pupation, IC50", "setting": "[1]", "result": ">1000", "unit": "μg/assay"}
    ]},
    {"smiles": "Cc1[nH]c2ccccc2c1CCNCc1ccc(/C=C/C(=O)NO)cc1", "note": "[Panobinostat]", "values": [
      {"measurement": "Blowfly bioassay, pupation, IC50", "setting": "[1]", "result": 393, "unit": "μg/assay"}
    ]},
    {"smiles": "C=C1C(=O)O[C@H]2[C@H]1CC/C(C)=C/CC[C@@]1(C)O[C@@H]21", "note": "[Parthenolide, parthenolide]", "values": [
      {"measurement": "Blowfly bioassay, pupation, IC50", "setting": "[1]", "result": ">1000", "unit": "μg/assay"},
      {"measurement": "Insecticidal activity in the blowfly bioassay (in words)", "setting": "[1]", "result": "no insecticidal activity"}
    ]},
    {"smiles": "CCCCc1nc2cc(/C=C/C(=O)NO)ccc2n1CCN(CC)CC", "note": "[Pracinostat]", "values": [
      {"measurement": "Blowfly bioassay, pupation, IC50", "setting": "[1]", "result": ">1000", "unit": "μg/assay"}
    ]},
    {"smiles": "O=C(NCCSSCCNC(=O)/C(Cc1ccc(O)c(Br)c1)=N/O)/C(Cc1ccc(O)c(Br)c1)=N/O", "note": "[Psammaplin A]", "values": [
      {"measurement": "Blowfly bioassay, pupation, IC50", "setting": "[1]", "result": 93.4, "unit": "μg/assay"}
    ]},
    {"smiles": "Cn1cc(CNCC2CCN(c3ncc(C(=O)NO)cn3)CC2)c2ccccc21", "note": "[Quisinostat]", "values": [
      {"measurement": "Blowfly bioassay, pupation, IC50", "setting": "[1]", "result": 274, "unit": "μg/assay"}
    ]},
    {"smiles": "CN(C)Cc1ccc(S(=O)(=O)n2ccc(/C=C/C(=O)NO)c2)cc1", "note": "[Resminostat]", "values": [
      {"measurement": "Blowfly bioassay, pupation, IC50", "setting": "[1]", "result": ">1000", "unit": "μg/assay"}
    ]},
    {"smiles": "C/C=C1\\NC(=O)[C@H]2CSSCC/C=C/[C@H](CC(=O)N[C@H](C(C)C)C(=O)N2)OC(=O)[C@H](C(C)C)NC1=O", "note": "[Romidepsin]", "values": [
      {"measurement": "Blowfly bioassay, pupation, IC50", "setting": "[1]", "result": 0.196, "unit": "μg/assay"},
      {"measurement": "Potency against blowfly larval growth relative to cyromazine (fold more potent)", "setting": "[1]; [3]", "result": 10, "unit": "fold"},
      {"measurement": "Potency against blowfly larval growth relative to dicyclanil", "setting": "[1]; larval bioassay IC50 comparison, in words", "result": "equipotent"},
      {"measurement": "Pupation IC50 relative to larval weight gain IC50", "setting": "[1]", "result": "≤ 2", "unit": "fold"},
      {"measurement": "Potency in nuclear extract HDAC assay relative to quisinostat (fold more potent)", "setting": "[2]", "result": "approximately 600 fold"}
    ]},
    {"smiles": "CC(/C=C/C(=O)NO)=C\\[C@@H](C)C(=O)c1ccc(N(C)C)cc1", "note": "[Trichostatin]", "values": [
      {"measurement": "Blowfly bioassay, pupation, IC50", "setting": "[1]", "result": 20.6, "unit": "μg/assay"},
      {"measurement": "Potency against blowfly larval growth relative to cyromazine (fold less potent)", "setting": "[1]; [3]", "result": "approximately 10 fold"},
      {"measurement": "Pupation IC50 relative to larval weight gain IC50", "setting": "[1]", "result": "≤ 2", "unit": "fold"}
    ]},
    {"smiles": "O=C(CCCCCCC(=O)Nc1ccc([C@H]2O[C@@H](CSc3nc(-c4ccccc4)c(-c4ccccc4)o3)C[C@@H](c3ccc(CO)cc3)O2)cc1)NO", "note": "[Tubacin]", "values": [
      {"measurement": "Blowfly bioassay, pupation, IC50", "setting": "[1]", "result": ">1000", "unit": "μg/assay"},
      {"measurement": "Insecticidal activity in the blowfly bioassay (in words)", "setting": "[1]", "result": "inactive"}
    ]},
    {"smiles": "CN1CCc2c(c3ccccc3n2Cc2ccc(C(=O)NO)cc2)C1", "note": "[Tubastatin A]", "values": [
      {"measurement": "Blowfly bioassay, pupation, IC50", "setting": "[1]", "result": ">1000", "unit": "μg/assay"},
      {"measurement": "Insecticidal activity in the blowfly bioassay (in words)", "setting": "[1]", "result": "inactive"}
    ]},
    {"smiles": "CCCC(CCC)C(=O)O", "note": "[Valproic acid]", "values": [
      {"measurement": "Blowfly bioassay, pupation, IC50", "setting": "[1]", "result": ">1000", "unit": "μg/assay"}
    ]}
  ]
}
